Numbering of substitutions follows the chain as printed.
Tests used:
[1] = biological target: T1, SUCR1 mutants (variant named in the endpoint) (Homo sapiens, UniProt Q9BXA5, F285A/L102F); experiment: Calcium mobilization assay, SUCR1 mutants in HEK293 stably expressing Gα16; format: cell-based; conditions: SUCR1 F285A-L102F
T1 construct: The full-length human SUCR1 and mutations were fused after the HA signal peptide and Flag tag; HA signal peptide (N); Flag (N); expressed in transfected cells; host or cells: HEK293 stably expressing Gα16 (pcDNA6.0, transient electroporation)
T1 sequence (Q9BXA5 1-334 L102F/F285A): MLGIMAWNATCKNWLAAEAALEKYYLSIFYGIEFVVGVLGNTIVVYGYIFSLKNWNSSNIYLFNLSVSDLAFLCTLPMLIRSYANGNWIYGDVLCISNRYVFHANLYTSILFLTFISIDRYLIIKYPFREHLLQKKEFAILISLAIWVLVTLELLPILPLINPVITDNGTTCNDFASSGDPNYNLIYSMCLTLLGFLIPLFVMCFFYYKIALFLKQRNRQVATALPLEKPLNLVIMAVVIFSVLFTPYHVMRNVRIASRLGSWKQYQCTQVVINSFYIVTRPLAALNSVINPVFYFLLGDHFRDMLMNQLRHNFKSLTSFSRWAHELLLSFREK
Procedure: (§1) The full-length human SUCR1 and mutations were fused after the HA signal peptide and Flag tag. The constructs were cloned into pcDNA6.0 vector for HEK293 system.
(§2) HEK293 cells were obtained from ATCC (Manassas, VA, USA) and cultured in DMEM supplemented with 10% (v/v) FBS, 100 mg/L penicillin, and 100 mg/L streptomycin in 5% CO2 at 37 °C. For transient transfection, ~2.5 × 10^6 cells were mixed with 2 µg plasmids in 200 µL transfection buffer, and electroporation was carried out with a Scientz-2C electroporation apparatus (Scientz Biotech, Ningbo, China). The experiments were carried out 24 h after transfection. HEK293 cell lines stably expressing Gα16 were constructed by our laboratory.
(§3) For OXGR1, plasmids were transfected into HEK293 (other receptors were transfected into HEK293 stably expressing Gα16) and seeded at a density of 4 × 10^4 per well into 96-well culture plates and incubated for 24 h at 37 °C in 5% CO2. The next day, Cells were incubated with 2 μM/L Fluo-4 AM in HBSS supplemented with 5.6 mM/L D-glucose and 250 μM/L sulfinpyrazone at 37 °C for 45 min. […] Three independent measurements were repeated, i.e., three different transfections, with three technical replicates performed for each experiment. EC50 and Emax values for each curve were calculated by Prism 8.0 software (GraphPad Software).

[2] = biological target: T2, SUCR1 mutants (variant named in the endpoint) (Homo sapiens, UniProt Q9BXA5, Y248F); experiment: as above; format: cell-based; conditions: SUCR1 Y248F
T2 construct: The full-length human SUCR1 and mutations were fused after the HA signal peptide and Flag tag; HA signal peptide (N); Flag (N); expressed in transfected cells; host or cells: HEK293 stably expressing Gα16 (pcDNA6.0, transient electroporation)
T2 sequence (Q9BXA5 1-334 Y248F): T1 sequence (Q9BXA5 1-334 L102F/F285A) with F102L, Y248F, A285F
Procedure: as §1, §2, §3

[3] = system: OXGR1 mutants (variant named in the endpoint); experiment: Calcium mobilization assay, OXGR1 mutants in HEK293; conditions: for Emax: each ligand normalized to WT (100%);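 for all read-outs here: human OXGR1 variants transiently expressed in HEK293 cells, with intracellular calcium read out by Fluo-4 AM fluorescence, measured 24 h after transfection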
Procedure: as §1, §2, §3

For O=C(O)CCC(=O)O [SUC, succinate], the EC50 [1] was 460 ± 80 µM, the EC50 [2] was 810 ± 90 µM and the EC50 ([3]; OXGR1 D185A) was greater than 1000 µM. It also gave an Emax ([3]; OXGR1 D185A) of -4.4± 9 WT%, an EC50 ([3]; OXGR1 E97A) of 1580 ± 260 µM and an Emax ([3]; OXGR1 E97A) of 74± 6 WT%. It also gave an EC50 ([3]; OXGR1 F113A) greater than 1000 µM, an Emax ([3]; OXGR1 F113A) of -0.39± 2 WT% and an EC50 ([3]; OXGR1 F113W) of 760 ± 210 µM. The “increase in potency by F113W mutation” value ([3]; OXGR1 F113W versus WT) was “no significant change”, the Emax ([3]; OXGR1 F113W) was 82± 5 WT% and the EC50 ([3]; OXGR1 F257A) was greater than 10000 µM. It also gave an Emax ([3]; OXGR1 F257A) of 29± 1 WT%, an EC50 ([3]; OXGR1 F257Y) of 81 ± 4 µM and an Emax ([3]; OXGR1 F257Y) of 76± 2 WT%. The EC50 ([3]; OXGR1 H114A) was 3600 ± 600 µM, the Emax ([3]; OXGR1 H114A) was 84± 4 WT% and the EC50 ([3]; OXGR1 H114L) was greater than 1000 µM. The Emax ([3]; OXGR1 H114L) was 1.9± 3 WT%, the EC50 ([3]; OXGR1 H281A) was 4500 ± 1300 µM and the Emax ([3]; OXGR1 H281A) was 87±10 WT%. For the same compound, the EC50 ([3]; OXGR1 I172A) was greater than 1000 µM, the Emax ([3]; OXGR1 I172A) was 0.013± 2 WT% and the EC50 ([3]; OXGR1 L36A) was greater than 1000 µM. The Emax ([3]; OXGR1 L36A) was 6.1± 0.2 WT%, the EC50 ([3]; OXGR1 L89A) was greater than 1000 µM and the Emax ([3]; OXGR1 L89A) was 2.8± 0.9 WT%. For the same compound, the EC50 ([3]; OXGR1 L186A) was greater than 1000 µM, the Emax ([3]; OXGR1 L186A) was -0.43± 1 WT% and the EC50 ([3]; OXGR1 L186F) was 770 ± 60 µM. The Emax ([3]; OXGR1 L186F) was 75± 5 WT%, the EC50 ([3]; OXGR1 L299P) was greater than 1000 µM and the Emax ([3]; OXGR1 L299P) was 10.5±3 WT%. The “activation of OXGR1 L299P” value ([3]; OXGR1 L299P, in words) was “abolished”, the EC50 ([3]; OXGR1 M168I) was 1100 ± 60 µM and the Emax ([3]; OXGR1 M168I) was 88± 2 WT%. For the same compound, the EC50 ([3]; OXGR1 N28A) was 300 ± 50 µM, the Emax ([3]; OXGR1 N28A) was 94± 0.8 WT% and the EC50 ([3]; OXGR1 R110A) was greater than 1000 µM. The Emax ([3]; OXGR1 R110A) was 7.0± 1 WT%, the EC50 ([3]; OXGR1 R110E) was greater than 1000 µM and the Emax ([3]; OXGR1 R110E) was 8.9± 5 WT%. It also gave an EC50 ([3]; OXGR1 R110Q) greater than 1000 µM, an Emax ([3]; OXGR1 R110Q) of 1.7± 2 WT% and an EC50 ([3]; OXGR1 R177A) of 370 ± 70 µM. It also gave an Emax ([3]; OXGR1 R177A) of 89± 6 WT%, an EC50 ([3]; OXGR1 R264A) greater than 10000 µM and an Emax ([3]; OXGR1 R264A) of 57± 5 WT%. The EC50 ([3]; OXGR1 R268A) was greater than 1000 µM, the Emax ([3]; OXGR1 R268A) was 6.3± 4 WT% and the EC50 ([3]; OXGR1 R288A) was greater than 1000 µM. It also gave an EC50 ([3]; OXGR1 R288E) greater than 1000 µM, an Emax ([3]; OXGR1 R288E) of -16±0.6 WT% and an EC50 ([3]; OXGR1 R288Q) greater than 1000 µM. The EC50 ([3]; OXGR1 Y40A) was greater than 1000 µM, the Emax ([3]; OXGR1 Y40A) was -1.5± 2 WT% and the EC50 ([3]; OXGR1 Y93A) was greater than 1000 µM. It also gave an Emax ([3]; OXGR1 Y93A) of 5.5± 3 WT%, an EC50 ([3]; OXGR1 Y284A) greater than 1000 µM and an Emax ([3]; OXGR1 Y284A) of 4.1±2 WT%.

— PMC13372822 (The EMBO Journal, 2026)
